Laboratory results: US7435587B2, “Apparatus for growing cells under variable hydrostatic pressures” (Memorial Sloan-Kettering Cancer Center, priority 2002, dated 2008)
“Also recorded” adds a separate entry of the source.

How the values were obtained:
Format in all cases: cell-based, human
[1] = test system: HOS cells; assay: Chemosensitivity testing in a pressurized cassette-HPA system (in situ cell counts); details: for differences in growth between the pressurized and non-pressurized systems: 0 vs 20 mmHg, 72 h under pressure with drug, at 0.16 and 1 μ/ml; for difference in viability (cell counts under pressure) between 0 and 20 mmHg: testing under pressure, clinically relevant range of 0.04 to 4 μ/ml
Method: To investigate chemosensitivity in a pressurized system, 1.5×10^4 HOS cells were seeded in 16 cassettes. These were incubated for 24 hours and baseline counts were made at the end of 24 hours. Serial dilutions of doxorubicin were added at a dose of 0 μg/ml, 0.16 μg/ml, 1 μg/ml and 8 μg/ml. […] Two sets were provided for each drug at 0 and 20 mmHg. Pressurization proceeded for 72 hours as described above. At the end of this time point, in situ cell growth over the identical 5 high power fields recorded after the first 24 hours were made. The observer was blinded to the identity of the sample being read. Cell growth was expressed as a ratio between the 72 hour and baseline 24 hour counts. This was then normalized to the readings for cells that were not exposed to chemotherapy (i.e. 0 μg/ml). This was done to account for cell growth changes that could result from the pressure effect itself. Student's T-test was used to assess for significance between the results of chemosensitivity at 0 and 20 mmHg. […] Each data point represents the mean of five readings with error bars representing the standard error of the mean.

[2] = test system: HOS cells; assay: Chemosensitivity testing of membrane discs bearing pressurized HOS cells immediately exposed to drug in 96-well plate (Alamar blue); details: HOS cells grown under pressure 72 h, cut from membranes, 24 h drug exposure at atmospheric pressure, no 24 h de-pressurization
Method: (§1) HOS cells were pressurized at 0 and 20 mmHg for 72 hours. At the end of this time point the growth membrane was removed and discs were created with a sterile punch. These discs bearing 2000 cells/disc were placed within each of the wells in a Costar 96-well plate (Bio-Rad, Hercules, Calif.). Serial dilutions of doxorubicin were immediately applied to the wells at a dose of 100 μg/ml to 0.00128 μg/ml. These were allowed an exposure time of 24 hours and then washed with PBS and 200 μl growth media replaced for a further 24 hours 25 μl of Alamar blue dye® (BioSource International, Camarillo, Calif.) was added for a further 8 hours and metabolic activity read with a Cytofluor® plate reader (Applied Biosystems, Foster City, Calif.). Metabolic activity was expressed as per manufacturer recommendations (BioSource International, Camarillo, Calif.).

[3] = test system: HOS cells; assay: Conventional 96-well chemosensitivity testing of HOS cells grown under pressure, de-pressurized, trypsinized and reattached 24 h (Alamar blue); details: tested at atmospheric pressure, p<0.05; for difference in the ED50 between cells grown at atmospheric pressure and those grown under 20 mmHg of pressure: HOS cells grown 72 h at 0 vs 20 mmHg, de-pressurized, difference is small
Method: as §1, with “Camarillo, Calif.). The experiment was repeated using cells grown at 72 hours under pressure, de-pressurized to atmospheric pressure and then trypsinized and seeded at 2000 cells per well and allowed 24 hours to gain attachment. They were then treated with doxorubicin. Assessment was completed as above. […] Student's t-test was used to assess for significance between the results of chemosensitivity at 0 and 20 mmHg. […] Each data point represents the mean of six readings with error bars representing the standard deviation.” for “Camarillo, Calif.).”

Q: With `COc1cccc2c1C(=O)c1c(O)c3c(c(O)c1C2=O)C[C@@](O)(C(=O)CO)C[C@@H]3O[C@H]1C[C@H](N)[C@H](O)[C@H](C)O1` [doxorubicin] as the molecule, how does the “differences in growth between the pressurized and non-pressurized systems” value [1] read?
A: marked differences in growth

Q: What about the “difference in viability (cell counts under pressure) between 0 and 20 mmHg” value [1] of the same molecule?
A: dramatic difference in viability

Q: And the “difference in sensitivity between cells grown at 0 and 20 mmHg, membranes immediately exposed to drug” value [2]?
A: this difference became more pronounced; also recorded: dramatic differences to sensitivity

Q: And the “difference in the ED50 between cells grown at atmospheric pressure and those grown under 20 mmHg of pressure” value [3]?
A: statistically significant difference

Q: And the “difference in cytotoxicity between cells grown at 0 and 20 mmHg” value ([3]; depressurized HOS cells, drug concentration range 0.04 to 4 μg/ml)?
A: statistically significant difference in cytotoxicity

Q: Which “differences in growth between the pressurized and non-pressurized systems” value [1] does the source give for `N.N.[Cl][Pt][Cl]` [cisplatin] here?
A: marked differences in growth

Q: What about the “difference in viability (cell counts under pressure) between 0 and 20 mmHg” value [1] of the same molecule?
A: dramatic difference in viability

Q: What about the “difference in the ED50 between cells grown at atmospheric pressure and those grown under 20 mmHg of pressure” value [3] of the same molecule?
A: statistically significant difference
